The NIST ThermoML archive (doi:10.1021/je100228t)
Numbers after ± are expanded uncertainties.

Conditions: for surface tension liquid-gas: Maximal bubble pressure; for mass density: 101.33 kPa, Liquid

CCn1cc[n+](C)c1.N#C[B-](C#N)(C#N)C#N [1-ethyl-3-methylimidazolium tetracyanoborate]
Conditions | mass density [kg/m3] | surface tension liquid-gas [mN/m]
283.15 K | 1048.37 ± 1.1 | 49.4 ± 0.3
288.15 K | 1044.37 ± 1.1 | 48.9 ± 0.3
293.15 K | 1040.38 ± 1.1 | 48.2 ± 0.3
298.15 K | 1036.41 ± 1.1 | 47.8 ± 0.3
303.15 K | 1032.46 ± 1.1 | 47.6 ± 0.3
308.15 K | 1028.55 ± 1 | 47.1 ± 0.3
313.15 K | 1024.66 ± 1 | 46.8 ± 0.3
318.15 K | 1020.78 ± 1 | 46.4 ± 0.3
323.15 K | 1016.95 ± 1 | 46.2 ± 0.3
328.15 K | 1013.11 ± 1 | 45.5 ± 0.3
333.15 K | 1009.32 ± 1 | 45 ± 0.3
338.15 K | 1005.54 ± 1 | 44.8 ± 0.3
